Measured values taken from patent publication US20210386705A1, “APPLICATION OF CHIGLITAZAR AND RELATED COMPOUNDS THEREOF” (SHENZHEN CHIPSCREEN BIOSCIENCES CO., LTD., priority 2018, published 2021).
Values joined by “and” are separate entries in the source; they are usually repeats but may differ in a detail not shown here. Equal values may be shown once.

Legend:
Assay type in all cases: cell-based, human
[1] = system: monocytic cell line THP-1; assay: MCP-1-induced chemotaxis of THP-1 cells (Transwell); settings: MCP-1 10 ng/mL, compound 3 μmol/L; for Cell concentration in lower chamber, Mean value / Cell concentration in lower chamber, single replicates: 24 hours pretreatment, 4 hours migration; for Migration rate: solvent control + MCP-1 = 100
Text: In an in vitro model, migration of the monocytic cell line THP-1 induced by a certain concentration of chemokines (such as monocyte chemotactic protein 1, MCP-1), and accordingly such in vivo process was mimicked. Transwell technology, according to the manufacturer's instructions from Corning Inc., is considered that Traswell is a kind of a polycarbonate membrane filter as well as a permeable holder. The polycarbonate membrane divides a culture chamber into upper and lower ones, where the components of the culture medium in the lower chamber can affect the growth, differentiation and movement of the cells in upper chamber. Finally, the cell migration ability can be reflected by staining and counting the cells in the lower chamber.
When cultured to the log phase stage, THP-1 cells were resuspended, adjusted the concentration, and seeded in 24-well plates, followed by being pretreated with the culture media containing the compound to be tested (sodium chiglitazar) or the reference compound GFT505, pioglitazone, or PPARγ single agonist rosiglitazone (all purchased from Selleck) for 24 hours. Transwells were used according to the manufacturer's instructions. The culture media containing chemokine MCP-1 were added to the lower chamber (i.e., the bottom of the 24-well plates), and the cell suspension was added to the upper chamber and cultured for 4 hours. Later, the cells cultured on the “ceiling” surface of the polycarbonate membrane were fixed and stained with crystal violet solution (FIG. 6), and then the number of cells in the lower chamber was counted (Table 3).

[2] = system: α-smooth muscle actin (α-SMA); assay: TGF-β1-activated hepatic stellate cells, α-SMA gene expression (qPCR); settings: TGF-β1 stimulation, 24 hours; FIG. 4
Description: Human primary hepatic stellate cells were seeded into 6-well plates with complete growth media (Stellate Cell Medium) for 24 hours, and then the culture media were replaced by fresh media (free of serum and growth factors) containing TGF-β1 and the compound to be tested (sodium chiglitazar) or the reference compound PPARγ/α dual agonist pioglitazone or PPARα/δ dual agonist GFT505 (both purchased from Selleck), and the cells were cultured for 24 hours. The total RNAs of the samples were extracted, and reverse transcription reaction was performed. Thereafter, a conventional PCR amplification kit (FastStart Universal SYBR@ Green Master (ROX), Roche) was used for further detection, where the PCR primers were designed with reference to the NCBI standard mRNA sequence of the target genes (Table 2). PCR reaction and detection were carried out on the ABI StepOnePlus real-time quantitative PCR instrument. By calculating the relative amount of transcripts was calculate by “Delta-Delta CT method” (Livak et al. Methods 2001), and using ACTB as the housekeeping gene for normalization and the average data of untreated human hepatic stellate cells as a reference control, the relative change folds of gene expression were obtained (FIG. 4).

[3] = system: THP-1 cells; assay: Inflammatory factor gene expression (MCP-1, TNFα) in PMA-activated THP-1 cells (qPCR); settings: 6 hours, FIG. 5
Description: Human acute monocytic leukemia mononuclear cell line (THP-1) cells were activated by a certain concentration of phorbol esters (Phorbol-12-myristate-13-acetate, PMA) and differentiated into macrophages. Through this cell model, the activating effects of sodium chiglitazar and other compounds on the expression of THP-1 related inflammatory factors were detected.
THP-1 cells were seeded into 6-well plates with complete growth media for 24 hours, and then the culture media were replaced by fresh media containing PMA and the compound to be tested (sodium chiglitazar) or the reference compound GFT505 (PPARα/δ dual agonist), and the cells were cultured for 6 hours. The total RNAs of the samples were extracted, and cDNA templates were synthesized by reverse transcription reaction (Transcriptor First Strand cDNA Synthesis Kit, Roche). Thereafter, a conventional PCR amplification kit (FastStart Universal SYBR@ Green Master (ROX), Roche) was used for semi-quantitative gene expression detection on the ABI StepOnePlus real-time quantitative PCR instrument.
The relative expression change of the target genes was obtained by using the internal reference β-actin gene (ACTB) as the standard for normalization, compared with the untreated cell samples, and the relative expression change folds were calculated (FIG. 5).

Row | Compound | Cell concentration in lower chamber, Mean value [1] | Cell concentration in lower chamber, single replicates [1] | Migration rate [1] | Effect on expression of α-smooth muscle actin [2] | Inhibition of phorbol esters-mediated activation of monocyte and related gene expression [3]
1 | CSc1ccc(C(=O)/C=C/c2cc(C)c(OC(C)(C)C(=O)O)c(C)c2)cc1 [GFT505] | 28175 cells/ml | 28443 cells/ml and 28511 cells/ml and 27572 cells/ml | 102.55% | a certain inhibitory effect | significantly inhibit
2 | CCc1ccc(CCOc2ccc(CC3SC(=O)NC3=O)cc2)nc1 (stereo not drawn) [pioglitazone] | 17514 cells/ml | 17529 cells/ml and 17416 cells/ml and 17597 cells/ml | 61.80% | no effect | 
